What was measured:
Experiment in all cases: relative viability (nuclei count vs DMSO), 5 days (fraction); higher = more cells survive
[1] = compound: CCc1c2c(nc3ccc(OC(=O)N4CCC(N5CCCCC5)CC4)cc13)-c1cc3c(c(=O)n1C2)COC(=O)[C@]3(O)CC [Irinotecan] + O=C(CCCCCCC(=O)Nc1ccccc1)NO [Vorinostat] (partner 1 µM)
Procedure, shortened: (§1)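 Five library-drug doses in √10 steps were combined with a fixed anchor-drug dose, or a single drug was given alone, by pin tool to lung cancer cell lines in 1536-well plates the day after seeding. Nuclei were stained and counted after 5 days. Relative viability is the nuclei count in treated wells over that in vehicle wells, taken as the median of duplicate plates.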

[2] = compound: CC[C@@H](C)CNCC(=O)N1CCC2=C([C@@H]1COC3=CC=CC(=C3)C)C=CS2 [RU-SKI 43] + Cc1nc(NC(=O)N2CCC[C@H]2C(N)=O)sc1-c1ccnc(C(C)(C)C(F)(F)F)c1 [Alpelisib] (partner 2 µM)
Procedure, shortened: as §1

[3] = compound: CCc1c2c(nc3ccc(OC(=O)N4CCC(N5CCCCC5)CC4)cc13)-c1cc3c(c(=O)n1C2)COC(=O)[C@]3(O)CC [Irinotecan] + CC(=O)Nc1cccc(-n2c(=O)n(C3CC3)c(=O)c3c(Nc4ccc(I)cc4F)n(C)c(=O)c(C)c32)c1 [Trametinib] (partner 0.02 µM)
Procedure, shortened: as §1

[4] = compound: Cn1cc(-c2cnc3ccc4ccc(CS(=O)(=O)NCc5ccccn5)cc4c(=O)c3c2)cn1 [MK-8033] + Cc1nc(Nc2ncc(C(=O)Nc3c(C)cccc3Cl)s2)cc(N2CCN(CCO)CC2)n1 [Dasatinib] (partner 0.075 µM)
Procedure, shortened: as §1

## NCI-H322M
[1]; first compound 0.6325 µM
  relative viability: 0.734
[1]; first compound 2 µM
  relative viability: 0.886
[1]; first compound 6.325 µM
  relative viability: 0.732
[1]; first compound 20 µM
  relative viability: 0.32
[2]; first compound 0.1 µM
  relative viability: 0.85
[2]; first compound 0.3162 µM
  relative viability: 0.852
[2]; first compound 1 µM
  relative viability: 0.833
[2]; first compound 3.162 µM
  relative viability: 0.891
[2]; first compound 10 µM
  relative viability: 0.794
[3]; first compound 0.6325 µM
  relative viability: 0.508
[3]; first compound 2 µM
  relative viability: 0.616
[3]; first compound 6.325 µM
  relative viability: 0.481
[3]; first compound 20 µM
  relative viability: 0.304
[4]; first compound 0.02 µM
  relative viability: 0.283
[4]; first compound 0.06325 µM
  relative viability: 0.243
[4]; first compound 0.2 µM
  relative viability: 0.238
[4]; first compound 0.6325 µM
  relative viability: 0.263
[4]; first compound 2 µM
  relative viability: 0.261

From the supplement of paper PMC10307832
